From patent publication US12673050B2, “Compositions and their use for the treatment of A1-antitrypsin deficiency” (Centessa Pharmaceuticals (UK) Limited, priority 2021, dated 2026)

Tests used:
human Siiyama A1AT = molecular target: T1, human Siiyama A1AT (Homo sapiens, UniProt P01009, S77F); test: A1AT cell secretion assay using HEK-Siiyama cells (ELISA); type: cell-based; details: 1 or 10 μM, 48 h
T1 construct: expressed in transfected cells; host or cells: HEK-Siiyama cells (HEK-EBNA with Siiyama A1AT plasmid)
Experimental: HEK-Siiyama cells, a human embryonic kidney cell line stably transfected with the Siiyama A1AT gene, were plated into 96 well plates (3.0×10^5 cells/ml with 200 μl of media/well) overnight at 37° C. in a humidified atmosphere containing 5% CO2. Following incubation cells were washed with 200 μl serum-free media three times and media was replaced with serum-free media containing vehicle, 10 μM suberanilohydroxamic acid (SAHA), (S)-1-((2-(trifluoromethyl)phenyl)sulfonyl)piperidine-3-carboxylic acid (at 1 or 10 μM) or (R)-1-((2-(trifluoromethyl)phenyl)sulfonyl)piperidine-3-carboxylic acid (at 1 or 10 μM) in replicates of eight for 48 h in a 37° C. incubator in a final volume of 200 μl. At the end of the incubation step the supernatants were removed from the wells, centrifuged at 1000×g at 4° C. for 10 min and were assayed for human A1AT levels by ELISA (Human Serpin A1/α1-antitrypsin duo set ELISA, R& D Systems, DY1268) per manufacturer's instructions.
Briefly, a 96 well plate was coated with human A1AT capture antibody overnight at room temperature (1:180 dilution from stock, 100 μl final volume/well). The capture antibody was then removed and wells washed three times with 300 μl wash buffer (0.05% Tween 20 in PBS) and then 200 μl reagent diluent (25% Tween 20 in PBS) was incubated in each well for 1 h at room temperature. Diluted samples, standards (125, 250, 500, 1000, 2000, 4000 and 8000 pg/ml A1AT) or blanks were then added to each well in duplicate and the plates were covered with a plate sealer and left at room temperature for 2 h. […] After which, 50 μl stop solution (2M H2SO4) was added and optical density (OD) of each well was read at 450 nm with 570 nm blank subtracted from each well using a microplate reader. A 4 parameter logistic curve was constructed using GraphPad Prism 7 and A1AT concentrations were determined in each sample by interpolation from a standard curve and multiplying by the appropriate dilution factor.
(§1) The amount of human A1AT secreted from transfected HEK-EBNA cells into the media was measured by ELISA. […]

[1] = Human hepatocyte stability; type: in vitro ADME; details: cryopreserved hepatocytes, mixed human hepatocyte suspension, 37° C.; for hepatocyte CLint: read-out: intrinsic clearance (CLint) in human hepatocytes
Experimental: The intrinsic clearance (CLint) and half-life of (S)-1-((2-(trifluoromethyl)phenyl)sulfonyl)piperidine-3-carboxylic acid and (R)-1-((2-(trifluoromethyl)phenyl)sulfonyl)piperidine-3-carboxylic acid were measured in a hepatocyte suspension of cryopreserved male C57BL6 mouse hepatocytes or a mixed hepatocyte suspension of cryopreserved human hepatocytes. Briefly, the compounds were incubated with hepatocyte suspensions at 37° C. over a time course and the remaining compound at each time point was assessed by mass spectrometry (UPLC-MS/MS). CLint in mouse hepatocytes was <3 μl/min/10^6 cells and in human hepatocytes was <3 μl/min/10^6 cells for both compounds.

[2] = Plasma protein binding by rapid equilibrium dialysis, mouse plasma; type: in vitro ADME; details: 37° C.
Experimental: (§2) The extent to which (S)-1-((2-(trifluoromethyl)phenyl)sulfonyl)piperidine-3-carboxylic acid and (R)-1-((2-(trifluoromethyl)phenyl)sulfonyl)piperidine-3-carboxylic acid bound to plasma proteins such as albumin and alpha-1 acid glycoprotein within human or mouse blood was determined by rapid equilibrium dialysis. Compounds were incubated at 5 μM for 4 hours at 37° C. Plasma protein binding in mouse plasma was 78.1% and in human plasma was 91.5% for (S)-1-((2-(trifluoromethyl)phenyl)sulfonyl)piperidine-3-carboxylic acid. Plasma protein binding in mouse plasma was 83.8% and in human plasma was 90.5% for (R)-1-((2-(trifluoromethyl)phenyl)sulfonyl)piperidine-3-carboxylic acid.

[3] = Plasma protein binding by rapid equilibrium dialysis, human plasma; type: in vitro ADME; details: 37° C.
Experimental: as §2

human Z A1AT = human Z A1AT (Homo sapiens, UniProt P01009, E366K); test: A1AT cell secretion assay using HEK-Z cells (ELISA); type: cell-based; parameters: expressed in transfected cells; host or cells: HEK-Z cells (HEK-EBNA with Z A1AT plasmid); details: HEK-Z cells, 10, 33, 100 and 333 nM, 48 h
Experimental: HEK-Z cells, a human embryonic kidney cell line stably transfected with the human Z A1AT gene, were plated into 96 well plates (3.0×10^5 cells/ml with 200 μl of media/well) overnight at 37° C. in a humidified atmosphere containing 5% CO2. Following incubation cells were washed with 200 μl serum-free media three times and media was replaced with treatments in quadruplicate using serum-free media containing vehicle, 10 μM suberanilohydroxamic acid (SAHA), (S)-1-((2-(trifluoromethyl)phenyl)sulfonyl)piperidine-3-carboxylic acid or (R)-1-((2-(trifluoromethyl)phenyl)sulfonyl)piperidine-3-carboxylic acid (at concentrations of 10, 33, 100 and 333 nM) for 48 h in a 37° C. incubator in a final volume of 200 μl. […]
Briefly, a 96 well plate was coated with human A1AT capture antibody overnight at room temperature (1:180 dilution from stock, 100 μl final volume/well). […] After which, 50 μl stop solution (2M H2SO4) was added and optical density (OD) of each well was read at 450 nm with 570 nm blank subtracted from each well using a microplate reader. A 4 parameter logistic curve was constructed using GraphPad Prism 7 and A1AT concentrations were determined in each sample by interpolation from a standard curve and multiplying by the appropriate dilution factor.
as §1

T1 sequence (P01009 25-418 S77F): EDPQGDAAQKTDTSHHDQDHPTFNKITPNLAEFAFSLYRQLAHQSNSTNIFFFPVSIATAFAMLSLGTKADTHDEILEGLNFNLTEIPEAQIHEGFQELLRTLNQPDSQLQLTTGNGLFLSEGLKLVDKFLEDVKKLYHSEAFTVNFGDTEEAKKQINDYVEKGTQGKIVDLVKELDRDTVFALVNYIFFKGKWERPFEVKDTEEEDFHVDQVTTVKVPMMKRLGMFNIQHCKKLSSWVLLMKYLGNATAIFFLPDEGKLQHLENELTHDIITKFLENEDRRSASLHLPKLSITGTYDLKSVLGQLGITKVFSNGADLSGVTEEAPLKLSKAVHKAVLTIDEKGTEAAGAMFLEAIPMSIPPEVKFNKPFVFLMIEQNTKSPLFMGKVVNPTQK
human Z A1AT, sequence (P01009 25-418 E366K): as the sequence (P01009 25-418 S77F) above, with F53S, E342K counted along it

half-life [1] | hepatocyte CLint [1] | fraction unbound at 4 h, 5 μM [2] | fraction unbound at 4 h, 5 μM [3] | SMILES | secretion of human Siiyama A1AT into cell supernatant (human Siiyama A1AT) | secretion of human Z A1AT into cell supernatant (human Z A1AT)
> 7.67 h | < 3 µL/min/1e6 cells | 0.219 | 0.085 | O=C(O)[C@H]1CCCN(S(=O)(=O)c2ccccc2C(F)(F)F)C1 [(S)-1-((2-(Trifluoromethyl)phenyl)sulfonyl)piperidine-3-carboxylic acid] | does not stimulate secretion of human Siiyama A1AT | stimulates secretion of human Z A1AT in a dose dependent manner
> 7.67 h | < 3 µL/min/1e6 cells | 0.162 | 0.095 | O=C(O)[C@@H]1CCCN(S(=O)(=O)c2ccccc2C(F)(F)F)C1 [(R)-1-((2-(Trifluoromethyl)phenyl)sulfonyl)piperidine-3-carboxylic acid] | does not stimulate secretion of human Siiyama A1AT | stimulates secretion of human Z A1AT in a dose dependent manner
